Experimental data from patent US20260014219A1, “COMPOSITION FOR INHIBITING REDUCTION OF TESTOSTERONE AND/OR DIHYDROTESTOSTERONE” (priority 2019, published 2026).

Key:
castrated rat = test: Test Example 1-1: male menopausal model rat (castrated, testosterone propionate-supplemented); format: in vivo
Experimental: As the human menopause model, rats were castrated (orchiectomy). An eight-week-old male rat was subjected to orchiectomy under isoflurane anesthesia, and the castrated rat was orally administered the hot water extract of Cordyceps militaris derived from Samia cynthia ricini (RK: 20 mg/0.2 mL distilled water/rat: average body weight at the start of administration: 317 g) together with testosterone propionate (TP: 1 mg/kg, every other day administration) continuously for 12 days. Animals were sacrificed the day after the final treatment, and then the serum, testes, prostate, and seminal vesicle glands were isolated. Some animals to which 0.2 mL distilled water was administered was used as control group.
After the blood collection, the concentrations of testosterone and dihydrotestosterone in the serum were evaluated by the following measurement kit.
The results of the blood testosterone values measured by an EIA kit (manufactured by Cayman) and the results of blood dihydrotestosterone values measured by an ELISA kit (manufactured by Abnova) are shown in FIGS. 1 and 2, respectively.
After the autopsy, changes in the weight of the prostate and the seminal vesicle were evaluated. The change in the weight of the prostate is shown in FIG. 5, and change in the weight of the seminal vesicle is shown in FIG. 6.

[1] = test system: prostatic hypertrophy model rat; test: Test Example 1-2: prostatic hypertrophy model rat (long-term excessive TP); format: in vivo, Wistar rat; conditions: TP 3 mg/kg, 1 month
Experimental: In a rat model of menopause Test Example 1-1, since the increase in the prostatic weight by testosterone propionate (TP) was inhibited by the hot water extract of Cordyceps militaris derived from Samia cynthia ricini (RK), it was assumed that RK has inhibitory effects on prostatic hypertrophy. The effect of long-term administration of RK was, therefore, examined using a rat model of prostatic hypertrophy in which an excessive amount of TP is administered to mature rats for a long period of time.
An eight-week-old male Wistar rat was orally administered RK (10 mg/0.2 mL distilled water/rat or 20 mg/0.2 mL distilled water/rat: average body weight at the start of administration: 268 g) together with 3 mg/kg of TP continuously for 1 month. Animals were sacrificed the day after the final treatment, and then the serum, testes, prostate, and seminal vesicle glands were isolated. Some animals to which 0.2 mL distilled water was administered was used as control group.
After the blood collection, the serum levels of testosterone and dihydrotestosterone value were evaluated by the following measurement kit.
The results of the blood testosterone values measured by EIA kit (manufactured by Cayman) and the results of dihydrotestosterone values measured by Elisa kit (manufactured by Abnova) are shown in FIGS. 8 and 9, respectively.
After the necropsy, changes in prostate weight and body weight were evaluated.

testicular cells = test: Test Example 2: testosterone/dihydrotestosterone production in primary testicular cells; format: cell-based, rat; conditions: 0.5 mM, 1 h pretreatment, then LH or dibutyryl cAMP, 90 min
Experimental: Dispersed testicular cells were prepared from the testis in mature rats. The testicular cells isolated were cultured for 18 hours in DMEM/Ham's F-12 medium (manufactured by FUJIFILM Wako Pure Chemical Corporation) for culture of testicular stromal cells, Leydig cell. Cells were pretreated with the hot water extract of Cordyceps militaris derived from Samia cynthia ricini (diluted to 1:500), or cordycepin known as one of the physiological activity substances of a vegetative wasp (0.5 mM) for 1 hour and then stimulated with a luteinizing hormone (LH: 10 and 100 ng/mL) or dibutyryl cAMP (0.1 and 0.5 mM). Ninety minutes after the stimulation, the media was collected and the content of testosterone was quantified. In order to confirm the reproducibility, the results of the reexamination performed with the same test content are shown in FIG. 13. In the reexamnination, three independent experiments were performed, and in addition to testosterone, dihydrotestosterone was also quantified.

| Compound | body weight (castrated rat; TP administered to castrated animals, FIG. 7) | weight of the prostate (castrated rat; TP group (1 mg/kg every other day) vs castrated, FIG. 5) | weight of the seminal vesicle (castrated rat; TP group (1 mg/kg every other day) vs castrated, FIG. 6) | serum levels of testosterone ([1]; FIG. 8) | serum levels of dihydrotestosterone ([1]; FIG. 9) | prostatic weight ([1]; FIG. 10) | stimulatory action on testosterone/dihydrotestosterone levels (testicular cells) |
| --- | --- | --- | --- | --- | --- | --- | --- |
| CCC(=O)O[C@H]1CC[C@H]2[C@@H]3CCC4=CC(=O)CC[C@]4(C)[C@H]3CC[C@]12C [testosterone propionate] | tended to increase | increased | increased | increase | increase | increased | – |
| Nc1ncnc2c1ncn2[C@@H]1O[C@H](CO)C[C@H]1O [Cordycepin, cordycepin] | – | – | – | – | – | – | No stimulatory action |
